Data reported in US20040161839A1, “Method to alter sugar moieties” (priority 2003, published 2004).

B1: DesI (Streptomyces venezuelae) (protein)
chain: MKSALSDLAFFGGPAAFDQPLLVGRPNRIDRARLYERLDRALDSQWLSNGGPLVREFEERVAGLAGVRHAVATCNATAGLQLLAHAAGLTGEVIMPSMTFAATPHALRWIGLTPVFADIDPDTGNLDPDQVAAAVTPRTSAVVGVHLWGRPCAADQLRKVADEHGLRLYFDAAHALGCAVDGRPAGSLGDAEVFSFHATKAVNAFEGGAVVTDDADLAARIRALHNFGFDLPGGSPAGGTNAKMSEAAAAMGLTSLDAFPEVIDRNRRNHAAYREHLADLPGVLVADHDRHGLNNHQYVIVEIDEATTGIHRDLVMEVLKAEGVHTRAYFSPGCHELEPYRGQPHAPLPHTERLAARVLSLPTGTAIGDDDIRRVADLLRLCATRGRELTARHRDTAPAPLAAPQTSTPTIGRSR

Assays:
[1] = system: Streptococcus pyogenes; assay: Antibiotic activity, filter paper disc test on agar plates; type: cell-based; conditions: for antibiotic activity against Streptococcus pyogenes (inhibition zone around disc): 20 μL of each sample (1.6 mM in MeOH) on filter paper discs, Mueller-Hinton agar plates, overnight at 37° C.; for activity against Streptococcus pyogenes grown on Mueller-Hinton agar plates: purified compounds
Protocol: The antibiotic activity of a compound of formula (13) and (14) against Streptococcus pyogenes was examined by separately applying 20 μL of each sample (1.6 mM in MeOH) to sterilized filter paper discs which were placed onto the surface of S. pyogenes grown on Mueller-Hinton agar plates (Mangahas, 1996).

[2] = biological target: T1, DesI (Streptomyces venezuelae, UniProt Q9ZGH0); assay: Incubation with purified DesI in the presence of L-glutamate, HPLC analysis; 4-aminotransferase kinetics; type: biochemical
T1 sequence (Q9ZGH0 1-415): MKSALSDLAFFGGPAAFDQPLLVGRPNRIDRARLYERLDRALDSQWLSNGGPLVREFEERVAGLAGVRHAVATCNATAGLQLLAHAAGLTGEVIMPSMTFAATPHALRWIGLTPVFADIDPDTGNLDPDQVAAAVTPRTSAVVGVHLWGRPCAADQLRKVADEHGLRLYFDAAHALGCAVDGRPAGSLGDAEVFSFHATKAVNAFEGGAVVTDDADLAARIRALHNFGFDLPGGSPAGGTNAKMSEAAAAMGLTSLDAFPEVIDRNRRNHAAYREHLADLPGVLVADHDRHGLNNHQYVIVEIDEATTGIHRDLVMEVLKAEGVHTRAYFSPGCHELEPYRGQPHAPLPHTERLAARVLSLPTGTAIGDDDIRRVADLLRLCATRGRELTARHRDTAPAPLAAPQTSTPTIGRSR
Description: To verify the catalytic function of DesI, the desI gene was amplified by PCR and cloned into the pET-28b(+) expression vector (Novagen) with a His6-tag at the N-terminus. The produced DesI protein was purified to near homogeneity by a Ni-NTA column (Qiagen) followed by FPLC on a MonoQ column.

[3] = system: DNA; conditions: tight DNA binding, literature; cited from earlier work
[4] = biological target: cytochrome P450 hydroxylase (PikC) (Streptomyces venezuelae, UniProt O87605); assay: Incubation with purified PikC in vitro (aglycone hydroxylation); type: biochemical
Description: Another noteworthy, albeit unexpected result was the fact that the aglycone of the isolated macrolide 31 was 10-deoxymethynolide instead of methymycin and neomethymycin analogues that are hydroxylated. […] It is possible that the cytochrome P450 hydroxylase (PikC), which catalyzes the hydroxylation of 10-deoxymethynolide and narbonolide (Xue et al., 1998) is sensitive to structural variations on the appended sugar. […] A similar observation was also noted in the case where desosamine was replaced by quinovose (Example 4). It could be argued that the presence of a substituent (either hydroxyl or amino group) at C-4 in the sugar moiety is responsible, at least in part, for decreasing or preventing hydroxylation of the macrolide.

[5] = substrate: Cc1cn([C@H]2C[C@H](O)[C@@H](COP(=O)(O)OP(=O)(O)O[C@H]3O[C@H](C)C(=O)[C@H](O)[C@H]3O)O2)c(=O)[nH]c1=O; assay: Incubation with purified DesI in the presence of L-glutamate, HPLC analysis; 4-aminotransferase kinetics; type: biochemical, Streptomyces venezuelae; conditions: other: DesI as PLP-dependent 4-aminotransferase, sugar substrate 6

Sequence of cytochrome P450 hydroxylase (PikC) (O87605 whole entry): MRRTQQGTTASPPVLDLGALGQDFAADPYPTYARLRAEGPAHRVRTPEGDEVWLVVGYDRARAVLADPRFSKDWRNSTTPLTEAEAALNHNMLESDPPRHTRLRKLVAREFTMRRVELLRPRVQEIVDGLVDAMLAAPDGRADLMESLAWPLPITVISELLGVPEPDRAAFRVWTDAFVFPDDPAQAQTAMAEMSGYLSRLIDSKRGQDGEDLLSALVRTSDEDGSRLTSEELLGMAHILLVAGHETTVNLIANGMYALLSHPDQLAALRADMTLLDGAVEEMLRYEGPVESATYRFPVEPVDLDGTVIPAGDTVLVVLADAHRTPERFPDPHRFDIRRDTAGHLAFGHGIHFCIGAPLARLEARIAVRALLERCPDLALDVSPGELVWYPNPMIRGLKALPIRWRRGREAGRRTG

Row | Molecule | antibiotic activity against Streptococcus pyogenes (inhibition zone around disc) [1] | activity against Streptococcus pyogenes grown on Mueller-Hinton agar plates [1] | other results
1 | C[C@@H]1C[C@H](N(C)C)[C@@H](O)[C@H](O[C@H]2[C@@H](C)C[C@@H](C)C(=O)/C=C/[C@@H](C)[C@@H]([C@@H](C)O)OC(=O)[C@@H]2C)O1 [formula (2), neomethymycin] | clearly visible inhibition zones | clearly visible inhibition zones | –
2 | Cc1cn(C2CC(O)C(COP(=O)(O)OP(=O)(O)OC3OC(C)C(O)C(=O)C3O)O2)c(=O)[nH]c1=O [TDP-3-keto-deoxy-D-glucose (7), TDP-3-keto-deoxy-D-glucose] | – | – | consumption of substrate / formation of new product by DesI [2]: no consumption
3 | CC1CC(N(C)C)C(O[C@@H]2O[C@H](CO)[C@@H](O)[C@H](O)[C@H]2O)C(OC2C(C)CC(C)C(=O)C=CC(C)C(C(C)O)OC(=O)C2C)O1 (stereo partly drawn) [formula (14), C-2′β-glucosylated neomethymycin] | no such clearings were discernible | – | –
4 | CC[C@H]1OC(=O)[C@H](C)C(=O)[C@H](C)[C@@H](O[C@@H]2O[C@H](C)C[C@H](N(C)C)[C@H]2O)[C@@H](C)C[C@@H](C)C(=O)/C=C/[C@]1(C)O [pikromycin] | – | clearly visible inhibition zones | –
5 | calicheamicin [calicheamicin (26)] | – | – | Ka (DNA binding) [3]: 10^6-10^8
6 | CCC1OC(=O)C(C)C(=O)C(C)C(OC2OC(C)C(NC(C)=O)C(O)C2O)C(C)CC(C)C(=O)C=CC1C (centres unmarked) [compound 32] | – | inactive | aglycone hydroxylation on incubation with purified PikC [4]: no aglycone hydroxylation was discernible
7 | CCC1OC(=O)C(C)C(OC2OC(C)C(NC(C)=O)C(O)C2O)C(C)CC(C)C(=O)C=CC1C (centres unmarked) [compound 31] | – | inactive | aglycone hydroxylation on incubation with purified PikC [4]: no aglycone hydroxylation was discernible
8 | CC[C@H]1OC(=O)[C@H](C)[C@@H](O[C@@H]2O[C@H](C)C[C@H](N(C)C)[C@H]2O)[C@@H](C)C[C@@H](C)C(=O)/C=C/[C@]1(C)O [formula (1), methymycin] | clearly visible inhibition zones | clearly visible inhibition zones | –
9 | CCC1OC(=O)C(C)C(OC2OC(C)CC(N(C)C)C2O[C@@H]2O[C@H](CO)[C@@H](O)[C@H](O)[C@H]2O)C(C)CC(C)C(=O)C=CC1(C)O (stereo partly drawn) [formula (13), C-2′β-glucosylated methymycin] | no such clearings were discernible | – | –
10 | B1 | – | – | Km [5]: 130 ± 4 µM
